Earlier results in patent publication US20210212952A1, “METHOD AND ENCAPSULATED SUBSTANCE FOR TREATING PAIN DUE TO A VARIETY OF DISEASES” (priority 2020, published 2021).

Conditions: in vivo, po

O=C1CC[C@@]2(O)[C@H]3Cc4ccc(O)c5c4[C@@]2(CCN3CC2CC2)[C@H]1O5 [Naltrexone, naltrexone]
absorbed into the blood stream: 96%
